Tests used:
Fyn [1] = assay: Fyn phosphorylation in HEK293 cells stably expressing ErbB4 and Fyn-V5 (Western blot); assay type: cell-based
Method: (§1) To determine whether NRG1-induced activation of ErbB4 leads to Fyn phosphorylation, NRG1 exposure of HEK293 cells stably expressing ErbB4 and Fyn-V5 were activated with 7.2 nM NRG1 (R&D Systems; Minneapolis, Minn.) for 10 minutes and lysed using RIPA buffer. […] There was no change in Fyn Tyr531 phosphorylation. […] Fyn is activated either by dephophorylation of Tyr531 with loss of the SH2 domain interaction, or through displacement of the SH2 domain by a second tyrosine phosphorylated binding partner allowing auto-phosphorylation on the Fyn activation loop residue Tyr420. Alternatively, Fyn can be phosphorylated on Tyr420 and activated directly by a second kinase. Thus, the NRG1-stimulated increase in Fyn Tyr420 phosphorylation may be through stimulation of Fyn auto-phosphorylation, through phosphorylation of Fyn by ErbB4, or through phosphorylation of Fyn by an ErbB4 activated tyrosine kinase other than Fyn.
These alternatives were distinguished by applying PP2 (25 nM; Calbiochem, San Diego, Calif.) a relatively selective Src-family kinase inhibitor, to inhibit Fyn while ErbB4 signaling was stimulated with NRG1. […] Fyn was phosphorylated at a low level on Tyr420 under basal conditions. […] After NRG1 stimulation, an increase in Fyn Tyr420 phosphorylation was seen, even under conditions in which PP2 was used to inhibit p59 Fyn autophosphorylation. […]

Fyn [2] = conditions: cited from earlier work
ErbB4 = ErbB4 tyrosine phosphorylation in HEK293 cells (Western blot); assay type: cell-based; conditions: for NRG1-induced ErbB4 tyrosine phosphorylation: cells expressing ErbB4 and Fyn, inhibitor 25 nM
Method: as §1
Thus, NRG1-induced ErbB4 phosphorylation under conditions in which Fyn and related Src-family kinases were inhibited by PP2 (selective Src-family kinase inhibitor described above). […] This may result in the creation of additional SH2 domain docking sites, thus leading to further activation of Fyn as part of a positive feedback mechanism involving NRG1, ErbB4 and Src-family kinases.

NRG1+/− mutant mice = assay: Open field test; assay type: in vivo, mouse; conditions: single exposure
Method: NRG1 hypomorphic mutant mice (NRG1^+/−) are heterozygotic mice that have a mutant NRG1 allele in which the NRG1 exon encoding the transmembrane domain is disrupted in the heterozygote. These mice develop normally and breed well. […] Treatment of the NRG1^+/−mice with a clozapine (1 mg/kg), an atypical antipsychotic drug commonly used to treat schizophrenia, for 25 minutes prior to testing reversed the behavioral abnormality. […] In addition, it is known that the NRG1^+/− had 16% fewer functional NMDA receptors overall as compared to litter-mate controls as determined by MK-801 (NMDA antagonist) binding studies on forebrain homogenates (Steffanson et al., Am. J. Hum. Genet. 72: 83-7, 2003). Therefore, these mice are relevant as an in vivo model for schizophrenia.
Behavioral abnormality of NRG1^+/− mutant mice observed in the open field test is reversible with clozapine at a dose of 1 mg/kg i.p. The activity level of wild-type litter mate controls is not affected by that dose of clozapine. Thus, clozapine is not simply sedating at 1 mg/kg i.p., but has a selective effect on the behavioral abnormality of NRG1^+/− mutant mice. Reversal of the behavioral abnormality occurred rapidly within 25 minutes of a single exposure to clozapine.

[3] = system: NMDA receptor subunit NR2B; assay: NR2B Tyr1472 phosphorylation in mouse hippocampal lysates (Western blot); assay type: in vivo
Method: To further characterize components of the NRG1/ErbB4 signaling pathway a-ErbB4 co-immunoprecipitates from mouse brain hippocampus were analyzed. […] Hippocampus tissue was isolated by manual dissection and homogenized in DOC buffer (20 μM ZnCl2, 50 mM Tris pH 9.0, 1% DOC) (1 ml/50 mg of tissue) containing protease and phosphatase inhibitors as above. 25U Benzonase Nuclease per 1 ml of lysate were added to each sample during a 60 minute incubation at 4° C. For SDS-PAGE and Western blot, sample protein content was determined using a BCA Protein Assay Reagent Kit (Pierce, Rockford, Ill.), adjusted to a final concentration of 2 μg/μl total protein in 1×SDS-PAGE sample buffer, and then 20-25 μg of protein was loaded per gel lane. For immunoprecipitation, samples were adjusted to a final concentration of 2 μg/μl total protein in DOC buffer. […]
It was hypothesized that NRG1^+/− and ErbB4^+/− mutant mice might show altered regulation of NMDA receptor subunit NR2B Tyr1472 phosphorylation related to their abnormal behavioral phenotype. Hippocampal lysates were analyzed as described in Example 1. It was determined that Tyr1472 of NR2B was hypo-phosphorylated in hippocampal lysates from 9 month old NRG1^+/− or ErbB4^+/− mutant mice as compared to age and sex matched C57B1/6 control mice (FIG. 3). […]

Row | Compound | Fyn phosphorylation (Fyn [1]; control compound) | effect on Fyn (Fyn [2]; control kinase inhibitor) | NRG1-induced ErbB4 tyrosine phosphorylation (ErbB4) | time to reversal of the behavioral abnormality (NRG1+/− mutant mice) [min] | increase of NR2B Tyr1472 phosphorylation ([3]; NRG1+/− mutant mice, 1 mg/kg i.p., 25 minutes after injection, normalized against total NR2B) | NR2B Tyr1472 phosphorylation ([3]; wild-type mice, same dose) | basal Fyn Tyr420 phosphorylation (Fyn [1]; basal conditions, 24 hour preincubation, 25 nM) | IC50 (Fyn [2]; read-out: Fyn inhibition IC50) [nM] | NRG1 induced tyrosine phosphorylation (ErbB4; HEK293 cells expressing only ErbB4) | ErbB4 basal phosphorylation (ErbB4; absence of NRG1)
1 | Nc1ncnc2c1cnn2-c1ccccc1 [PP3] | no effect | no effect on Fyn | no effect | – | – | – | – | – | – | –
2 | CN1CCN(C2=Nc3cc(Cl)ccc3Nc3ccccc32)CC1 [clozapine] | – | – | – | ≤ 25 | 2.5-3 fold | no effect | – | – | – | –
3 | CC(C)(C)n1nc(-c2ccc(Cl)cc2)c2c(N)ncnc21 [PP2] | – | – | greatly reduced | – | – | – | reduced | […] | no effect | no effect

— patent publication US20060029546A1, “Materials and methods for identifying anti-schizophrenic agents” (deCODE Genetics, Inc., priority 2004, published 2006)
